Experimental data taken from paper PMC10916623, “Tissue distribution and pharmacokinetics of isoxanthohumol from hops in rodents” (Food Science & Nutrition, 2023).

Test: Liver accumulation after intragastric IXA administration at various concentrations to rats for 28 days
Type: in vivo, Sprague–Dawley rats
Settings: rat liver; IXA 112.5–1500 mg/kg BW once a day for 28 days; Pearson
Description: Six‐week‐old female Sprague–Dawley rats (Charles River Laboratories Japan, Inc., Yokohama, Japan) were housed in a room maintained at 20–26°C on a 12‐h light–dark cycle. The initial BW of rats was 176–179 g. They were allowed free access to a commercial diet (CRF‐1) and water during the experiment. IXA dissolved in injection solution was administered intragastrically to rats (112.5, 225, 360, 450, and 1500 mg/kg BW) daily for 28 days using a gastric feeding tube. We also set up a control group to which the injection solution was administered. The final BW of rats was 231–241 g. The liver was collected the day after the last administration. The rats were fasted for 16–24 h before they were euthanized, but they had free access to water. Liver samples were stored at −80°C until analysis.
Tissue sample deconjugation was performed as described in a previous report with slight modifications (Tanaka et al., [2022]). Tissues were homogenized in phosphate‐buffered saline (pH 7.4), which was nine times the tissue volume. The tissue homogenate was incubated in 50 mmol/L ascorbic acid (one‐fifth the volume of phosphate‐buffered saline) and 1.67 μkat/100 μL of β‐glucuronidase type H‐1 in 0.1 mol/L sodium acetate buffer (pH 4.7, nine times the volume of the sample) for 2 h at 37°C. Then, 2.4 nmol of QTM was added to samples as an internal standard. The supernatant was isolated by centrifugation at 17 × 10^3 m/s^2 (Kubota) for 5 min at 4°C. Then, methanol (Kanto Kagaku, 25183‐2B) was added to the pellets, and they were shaken for 1 min. The methanol layer and pellets were separated by centrifugation at 17 × 10^3 m/s^2 (Kubota, RY1071‐A000) for 5 min at 4°C. Methanol extraction was repeated three times. Finally, methanol extracts were mixed with the supernatant (the composition of the mixture was 30% methanol) and then applied to an Inert Sep C8 (200 mg/3 mL; GL Sciences, Tokyo, Japan; 5010‐61082) cartridge. The cartridge was preconditioned with 6 mL of 2% acetic acid in methanol, and then 9 mL of 2% acetic acid in water. The extracted tissue was passed through the cartridge, and it was washed with 5 mL of 2% acetic acid in 30% methanol aq. The flavonoids were eluted with 10 mL of 2% acetic acid in methanol.
The plasma and tissue extracts were evaporated using a Centrifugal Evaporator (EYERA, Tokyo, Japan, CVE‐3000). The samples were stored at −80°C until the next day. Then, the samples were dissolved in 120 μL of a mobile phase solution and divided into two test tubes. […]
IXA and 8‐PN concentrations were determined by their respective standard curves using an internal standard method. […] Because clear peaks over 4.5 pmol/sample were detected for IXA and 8‐PN by visual evaluation, we determined that these concentrations were the peak limit of detections for each flavonoid. […]

correlation coefficient between dose-concentration and accumulation: .813
Substance: 4,7‐dihydroxy‐5‐methoxy‐8‐prenylflavanone [IXA]
